Measurements reported in PubChem BioAssay AID2060599 (Molecular Pharmacology Branch, DTP, NCI, 2025).

test system: 817829-284-R-J1-PDC complex spheroids, viability; test: Anticancer human tumor 817829-284-R-J1-PDC patient-derived colon adenocarcinoma cell line growth inhibition [CLK]; settings: second compound 0.316 µM; first compound 1 µM; stronger effect = lower value
Summary of the method: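 Multi-cell-type spheroids combined patient-derived tumor cells with HUVEC endothelial cells and human mesenchymal stem cells. Paired agents were dosed in half-log steps down from about clinical Cmax, or from 10 microM where Cmax was unknown.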
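Also: spheroids exposed to the agents for seven days before readout.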

| Structure (SMILES) | viability, T/C |
| --- | --- |
| C#Cc1c(F)ccc2cc(O)cc(-c3ncc4c(N5CC6CCC(C5)N6)nc(OCC56CCCN5CC(F)C6)nc4c3F)c12 (stereo unspecified) + CNC(=O)c1ccc(Nc2nc(OC3CCCC3)c3c(-c4ccc5nc(C)oc5c4)c[nH]c3n2)c(OC)c1 | 33.7% |
| C=C(F)C(=O)N1CCN(c2nc(OCC3CCCN3C)nc3c2CCN(c2cccc4cccc(Cl)c24)C3)CC1CC#N (stereo unspecified) + CNC(=O)c1ccc(Nc2nc(OC3CCCC3)c3c(-c4ccc5nc(C)oc5c4)c[nH]c3n2)c(OC)c1 | 24.5% |
| C=CC(=O)N1CCN(c2nc(=O)n(-c3c(C)ccnc3C(C)C)c3nc(-c4c(O)cccc4F)c(F)cc23)C(C)C1 (stereo unspecified) + CNC(=O)c1ccc(Nc2nc(OC3CCCC3)c3c(-c4ccc5nc(C)oc5c4)c[nH]c3n2)c(OC)c1 | 22.8% |
| CCCS(=O)(=O)Nc1ccc(F)c(C(=O)c2c[nH]c3ncc(-c4ccc(Cl)cc4)cc23)c1F + CNC(=O)c1ccc(Nc2nc(OC3CCCC3)c3c(-c4ccc5nc(C)oc5c4)c[nH]c3n2)c(OC)c1 | 15.2% |
| COC1C=CCC(C)C(C)S(=O)(=O)NC(=O)c2ccc3c(c2)N(CC2CCC21)CC1(CCCc2cc(Cl)ccc21)CO3 (stereo unspecified) + CNC(=O)c1ccc(Nc2nc(OC3CCCC3)c3c(-c4ccc5nc(C)oc5c4)c[nH]c3n2)c(OC)c1 | 12.6% |

same assay, conditions: second compound 0.316 µM; first compound 3.16 µM; stronger effect = lower value

| Structure (SMILES) | viability, T/C |
| --- | --- |
| C#Cc1c(F)ccc2cc(O)cc(-c3ncc4c(N5CC6CCC(C5)N6)nc(OCC56CCCN5CC(F)C6)nc4c3F)c12 (stereo unspecified) + CNC(=O)c1ccc(Nc2nc(OC3CCCC3)c3c(-c4ccc5nc(C)oc5c4)c[nH]c3n2)c(OC)c1 | 25.6% |
| C=C(F)C(=O)N1CCN(c2nc(OCC3CCCN3C)nc3c2CCN(c2cccc4cccc(Cl)c24)C3)CC1CC#N (stereo unspecified) + CNC(=O)c1ccc(Nc2nc(OC3CCCC3)c3c(-c4ccc5nc(C)oc5c4)c[nH]c3n2)c(OC)c1 | 10.8% |
| C=CC(=O)N1CCN(c2nc(=O)n(-c3c(C)ccnc3C(C)C)c3nc(-c4c(O)cccc4F)c(F)cc23)C(C)C1 (stereo unspecified) + CNC(=O)c1ccc(Nc2nc(OC3CCCC3)c3c(-c4ccc5nc(C)oc5c4)c[nH]c3n2)c(OC)c1 | 31.2% |
| CCCS(=O)(=O)Nc1ccc(F)c(C(=O)c2c[nH]c3ncc(-c4ccc(Cl)cc4)cc23)c1F + CNC(=O)c1ccc(Nc2nc(OC3CCCC3)c3c(-c4ccc5nc(C)oc5c4)c[nH]c3n2)c(OC)c1 | 18.3% |
| COC1C=CCC(C)C(C)S(=O)(=O)NC(=O)c2ccc3c(c2)N(CC2CCC21)CC1(CCCc2cc(Cl)ccc21)CO3 (stereo unspecified) + CNC(=O)c1ccc(Nc2nc(OC3CCCC3)c3c(-c4ccc5nc(C)oc5c4)c[nH]c3n2)c(OC)c1 | 6.09% |

same assay, conditions: second compound 0.316 µM; first compound 10 µM; stronger effect = lower value

| Structure (SMILES) | viability, T/C |
| --- | --- |
| C#Cc1c(F)ccc2cc(O)cc(-c3ncc4c(N5CC6CCC(C5)N6)nc(OCC56CCCN5CC(F)C6)nc4c3F)c12 (stereo unspecified) + CNC(=O)c1ccc(Nc2nc(OC3CCCC3)c3c(-c4ccc5nc(C)oc5c4)c[nH]c3n2)c(OC)c1 | 15.5% |
| C=C(F)C(=O)N1CCN(c2nc(OCC3CCCN3C)nc3c2CCN(c2cccc4cccc(Cl)c24)C3)CC1CC#N (stereo unspecified) + CNC(=O)c1ccc(Nc2nc(OC3CCCC3)c3c(-c4ccc5nc(C)oc5c4)c[nH]c3n2)c(OC)c1 | 0.08% |
| C=CC(=O)N1CCN(c2nc(=O)n(-c3c(C)ccnc3C(C)C)c3nc(-c4c(O)cccc4F)c(F)cc23)C(C)C1 (stereo unspecified) + CNC(=O)c1ccc(Nc2nc(OC3CCCC3)c3c(-c4ccc5nc(C)oc5c4)c[nH]c3n2)c(OC)c1 | 17.4% |
| CCCS(=O)(=O)Nc1ccc(F)c(C(=O)c2c[nH]c3ncc(-c4ccc(Cl)cc4)cc23)c1F + CNC(=O)c1ccc(Nc2nc(OC3CCCC3)c3c(-c4ccc5nc(C)oc5c4)c[nH]c3n2)c(OC)c1 | 15.7% |
| COC1C=CCC(C)C(C)S(=O)(=O)NC(=O)c2ccc3c(c2)N(CC2CCC21)CC1(CCCc2cc(Cl)ccc21)CO3 (stereo unspecified) + CNC(=O)c1ccc(Nc2nc(OC3CCCC3)c3c(-c4ccc5nc(C)oc5c4)c[nH]c3n2)c(OC)c1 | 4.97% |

same assay, conditions: second compound 1 µM; first compound 0.0316 µM; stronger effect = lower value

| Structure (SMILES) | viability, T/C |
| --- | --- |
| C#Cc1c(F)ccc2cc(O)cc(-c3ncc4c(N5CC6CCC(C5)N6)nc(OCC56CCCN5CC(F)C6)nc4c3F)c12 (stereo unspecified) + CNC(=O)c1ccc(Nc2nc(OC3CCCC3)c3c(-c4ccc5nc(C)oc5c4)c[nH]c3n2)c(OC)c1 | 23.1% |
| C=C(F)C(=O)N1CCN(c2nc(OCC3CCCN3C)nc3c2CCN(c2cccc4cccc(Cl)c24)C3)CC1CC#N (stereo unspecified) + CNC(=O)c1ccc(Nc2nc(OC3CCCC3)c3c(-c4ccc5nc(C)oc5c4)c[nH]c3n2)c(OC)c1 | 22.4% |
| C=CC(=O)N1CCN(c2nc(=O)n(-c3c(C)ccnc3C(C)C)c3nc(-c4c(O)cccc4F)c(F)cc23)C(C)C1 (stereo unspecified) + CNC(=O)c1ccc(Nc2nc(OC3CCCC3)c3c(-c4ccc5nc(C)oc5c4)c[nH]c3n2)c(OC)c1 | 22.3% |
| CCCS(=O)(=O)Nc1ccc(F)c(C(=O)c2c[nH]c3ncc(-c4ccc(Cl)cc4)cc23)c1F + CNC(=O)c1ccc(Nc2nc(OC3CCCC3)c3c(-c4ccc5nc(C)oc5c4)c[nH]c3n2)c(OC)c1 | 17.8% |
| COC1C=CCC(C)C(C)S(=O)(=O)NC(=O)c2ccc3c(c2)N(CC2CCC21)CC1(CCCc2cc(Cl)ccc21)CO3 (stereo unspecified) + CNC(=O)c1ccc(Nc2nc(OC3CCCC3)c3c(-c4ccc5nc(C)oc5c4)c[nH]c3n2)c(OC)c1 | 19.7% |

same assay, conditions: second compound 1 µM; first compound 0.1 µM; stronger effect = lower value

| Structure (SMILES) | viability, T/C |
| --- | --- |
| C#Cc1c(F)ccc2cc(O)cc(-c3ncc4c(N5CC6CCC(C5)N6)nc(OCC56CCCN5CC(F)C6)nc4c3F)c12 (stereo unspecified) + CNC(=O)c1ccc(Nc2nc(OC3CCCC3)c3c(-c4ccc5nc(C)oc5c4)c[nH]c3n2)c(OC)c1 | 18.2% |
| C=C(F)C(=O)N1CCN(c2nc(OCC3CCCN3C)nc3c2CCN(c2cccc4cccc(Cl)c24)C3)CC1CC#N (stereo unspecified) + CNC(=O)c1ccc(Nc2nc(OC3CCCC3)c3c(-c4ccc5nc(C)oc5c4)c[nH]c3n2)c(OC)c1 | 24.6% |
| C=CC(=O)N1CCN(c2nc(=O)n(-c3c(C)ccnc3C(C)C)c3nc(-c4c(O)cccc4F)c(F)cc23)C(C)C1 (stereo unspecified) + CNC(=O)c1ccc(Nc2nc(OC3CCCC3)c3c(-c4ccc5nc(C)oc5c4)c[nH]c3n2)c(OC)c1 | 20.8% |
| CCCS(=O)(=O)Nc1ccc(F)c(C(=O)c2c[nH]c3ncc(-c4ccc(Cl)cc4)cc23)c1F + CNC(=O)c1ccc(Nc2nc(OC3CCCC3)c3c(-c4ccc5nc(C)oc5c4)c[nH]c3n2)c(OC)c1 | 15% |
| COC1C=CCC(C)C(C)S(=O)(=O)NC(=O)c2ccc3c(c2)N(CC2CCC21)CC1(CCCc2cc(Cl)ccc21)CO3 (stereo unspecified) + CNC(=O)c1ccc(Nc2nc(OC3CCCC3)c3c(-c4ccc5nc(C)oc5c4)c[nH]c3n2)c(OC)c1 | 23.3% |

same assay, conditions: second compound 1 µM; first compound 0.316 µM; stronger effect = lower value

| Structure (SMILES) | viability, T/C |
| --- | --- |
| C#Cc1c(F)ccc2cc(O)cc(-c3ncc4c(N5CC6CCC(C5)N6)nc(OCC56CCCN5CC(F)C6)nc4c3F)c12 (stereo unspecified) + CNC(=O)c1ccc(Nc2nc(OC3CCCC3)c3c(-c4ccc5nc(C)oc5c4)c[nH]c3n2)c(OC)c1 | 19% |
